Source: US20080242685A1, “Chemical Compounds” (Smithkline Beecham Corporation, priority 2005, published 2008)

target: T1, Recombinant human IKKβ (residues 1-737) (Homo sapiens, UniProt O14920); test: IKK2 Assay (TR-FRET); assay type: biochemical; details: IKK2 5 nM, GST-IκBα substrate 25 nM, ATP 1 μM, 30 minutes at room temperature, read-out: pIC50 against IKK2 (converted)
T1 construct: Recombinant human IKKβ (residues 1-737); GST (C); made in house
T1 sequence (O14920 1-737): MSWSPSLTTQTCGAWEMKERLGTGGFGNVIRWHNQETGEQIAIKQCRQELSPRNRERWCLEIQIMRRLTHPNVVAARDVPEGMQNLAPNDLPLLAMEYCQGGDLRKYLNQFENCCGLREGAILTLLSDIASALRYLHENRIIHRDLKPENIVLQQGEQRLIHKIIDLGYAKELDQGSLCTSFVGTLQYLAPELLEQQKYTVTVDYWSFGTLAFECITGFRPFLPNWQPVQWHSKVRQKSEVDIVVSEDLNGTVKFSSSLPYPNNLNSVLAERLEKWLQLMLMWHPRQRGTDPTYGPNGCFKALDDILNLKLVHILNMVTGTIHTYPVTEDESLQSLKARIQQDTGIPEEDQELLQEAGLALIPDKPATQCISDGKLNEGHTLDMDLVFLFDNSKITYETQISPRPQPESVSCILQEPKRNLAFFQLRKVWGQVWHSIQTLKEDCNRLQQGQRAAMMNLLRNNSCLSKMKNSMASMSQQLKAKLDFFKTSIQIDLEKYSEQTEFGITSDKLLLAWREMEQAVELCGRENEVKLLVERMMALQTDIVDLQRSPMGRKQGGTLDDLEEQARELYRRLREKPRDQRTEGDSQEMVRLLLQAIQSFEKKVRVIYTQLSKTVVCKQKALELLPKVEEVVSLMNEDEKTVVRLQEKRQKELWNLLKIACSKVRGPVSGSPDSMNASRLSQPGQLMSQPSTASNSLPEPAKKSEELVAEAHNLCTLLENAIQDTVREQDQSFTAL
Method: Recombinant human IKKβ (residues 1-737) was expressed in baculovirus as a C-terminal GST-tagged fusion protein, and its activity was assessed using a time-resolved fluorescence resonance energy transfer (TR-FRET) assay. Briefly, IKK2 (5 nM final) diluted in assay buffer (50 mM HEPES, 10 mM MgCl2, 1 mM CHAPS pH 7.4 with 1 mM DTT and 0.01% w/v BSA) was added to wells containing various concentrations of compound or DMSO vehicle (3% final). The reaction was initiated by the addition of GST-IκBα substrate (25 nM final)/ATP (1 μM final), in a total volume of 30 μl. The reaction was incubated for 30 minutes at room temperature, then terminated by the addition of 15 μl of 50 mM EDTA. Detection reagent (15 μl) in buffer (100 mM HEPES pH 7.4, 150 mM NaCl and 0.1% w/v BSA) containing antiphosphoserine-IκBα-32/36 monoclonal antibody 12C2 (Cell Signalling Technology, Beverly Mass., USA) labelled with W-1024 europium chelate (Wallac OY, Turku, Finland), and an APC-labelled anti-GST antibody (Prozyme, San Leandro, Calif., USA) was added and the reaction was further incubated for 60 minutes at room temperature. The degree of phosphorylation of GST-IκBα was measured using a Packard Discovery plate reader (Perkin-Elmer Life Sciences, Pangbourne, UK) as a ratio of specific 665 nm energy transfer signal to reference europium 620 nm signal.

| IC50 [µM] | SMILES |
| --- | --- |
| ≤ 10 | NC(=O)c1nc(-c2ccccc2)cc2c(C3CCNCC3)c[nH]c12 [Example 7, 5-phenyl-3-(4-piperidinyl)-1H-pyrrolo[2,3-c]pyridine-7-carboxamide] |
| ≤ 10 | CCS(=O)(=O)N1CCC(c2c[nH]c3c(C(N)=O)nc(-c4ccccc4)cc23)CC1 [Example 8, 3-[1-(ethylsulfonyl)-4-piperidinyl]-5-phenyl-1H-pyrrolo[2,3-c]pyridine-7-carboxamide] |
| ≤ 10 | CC(C)(C)OC(=O)N1CC=C(c2c[nH]c3c(C(N)=O)nc(-c4ccccc4)cc23)CC1 [Example 5, 1,1-dimethylethyl 4-[7-(aminocarbonyl)-5-phenyl-1H-pyrrolo[2,3-c]pyridin-3-yl]-3,6-dihydro-1(2H)-pyridinecarboxylate] |
| ≤ 10 | NC(=O)c1nc(-c2ccccc2)cc2cc[nH]c12 [Example 14, 5-phenyl-1H-pyrrolo[2,3-c]pyridine-7-carboxamide] |
| ≤ 10 | CC(C)(C)OC(=O)N1CCC(c2c[nH]c3c(C(N)=O)nc(-c4ccccc4)cc23)CC1 [Example 6, 1,1-dimethylethyl 4-[7-(aminocarbonyl)-5-phenyl-1H-pyrrolo[2,3-c]pyridin-3-yl]-1-piperidinecarboxylate] |
